Test results published in article PMC11672316, “Identification of ANXA1 as a Novel Upstream Negative Regulator of Notch1 Function in AML” (Advanced Science, 2024).
Ends that are not written are not given here. Peptide text beside a SMILES is read from it. * marks the point of attachment. Cbz = O=C(OCc1ccccc1)*

Experiments:
Type in all cases: cell-based, human
NICD [1] = assay: Co-immunoprecipitation, NICD-bound ubiquitin; conditions: KG1a- and HL60- shANXA1 or shControl cells; MG132 0 or 6 h; Figure 3C
Protocol: For co-immunoprecipitation (Co-IP) assay, the cells were lysed with NP-40 lysis buffer (Beyotime) containing 1 mM PMSF for 30 min at 4°C. The total protein concentrations were measured using BCA protein assay kit (Solarbio) according to the instructions. The lysates were divided into several tubes and precleared by adding protein A/G-agarose (Santa Cruz) for 30 min at 4°C. The samples were centrifuged to remove the precipitation and incubated with Notch1 antibody or normal rabbit IgG (Table S6, Supporting Information) for 2 hours, and then incubated with protein A/G-agarose overnight. The complexes were washed with NP-40 lysis buffer four times before being eluted in SDS-gel loading buffer and detected by western blotting.

NICD [2] = assay: Western blotting of NICD after MG132 treatment; conditions: AML cells (KG1a and HL60)
Protocol: (§1) Cells were lysed in a lysis buffer containing 0.5 mM EDTA, 20 mM HEPES and 2% SDS. Samples mixed with SDS-gel loading buffer were loaded onto SDS-PAGE gel and transferred onto polyvinylidene fluoride (PVDF) microporous membranes (Millipore). Membranes were blocked with 5% nonfat milk in TBST (20 mM Tris-HCl, 150 mM NaCl, 0.1% Tween-20 with pH 7.5) for 2 hours and incubated with primary antibodies (Table S6, Supporting Information) at 4°C overnight. The membranes were incubated with a secondary antibody (Table S6, Supporting Information) followed by detection in an imaging system (ChampChemi 910, SageCreation) using the ECL reagent solution (SageCreation).

p15 = assay: Western blotting of p15 after RO4929097 treatment; conditions: 24 h, Figure 4D
Protocol: as §1

HL60-shANXA1 cells = assay: Cell counting proliferation assay, HL60-shANXA1; conditions: 24 h, Figure 4E, three independent experiments
Protocol: (§2) For the cell counting assay, transfected cell lines or parental cells were seeded in a cell culture plate at the same density and cultured with RPMI-1640 medium, which sometimes added drugs. The number of cells was counted by a cell counter (Countstar BioTech IC 1000, Countstar) after indicated time.

KG1a-shANXA1 cells = assay: Cell counting proliferation assay, KG1a-shANXA1; conditions: 24 h, Figure 4E, three independent experiments
Protocol: as §2

KG1a cells = assay: MTT assay, KG1a (FPR blocking or activation); conditions: Figure S14, three independent experiments
Protocol: (§3) For Methylthiazolyldiphenyl-tetrazolium bromide (MTT) assay, cells were seeded in a 96-well plate and incubated with drugs or peptides. At the indicated time point, each well was added with 10 μL MTT solution (5 mg mL^-1, Sigma-Aldrich) and then incubated at 37°C in 5% CO2 for 4 hours. The medium was replaced by DMSO with 150 μL to dissolve the formazan crystals.

HL60 cells = assay: MTT assay, HL60 (FPR blocking or activation); conditions: Figure S14, three independent experiments
Protocol: as §3

CC(C)C[C@@H](C=O)NC(=O)[C@H](CC(C)C)NC(=O)[C@H](CC(C)C)NC(=O)OCc1ccccc1 [MG132] (Cbz-Leu-Leu-Leu-aldehyde)
ubiquitin bound to NICD (NICD [1]): ubiquitin was bound to NICD significantly in the shControl cells after MG132 treatment rather than ANXA1 knockdown cells
NICD expression level (NICD [2]; ANXA1 knockdown group): minimally affected the expression level of NICD in the ANXA1 knockdown group
NICD degradation (NICD [2]; shControl, 3 h): significantly reversed the ANXA1‐induced NICD degradation after 3 h of treatment in the control group

CC(C)(C(=O)NCC(F)(F)C(F)(F)F)C(=O)N[C@@H]1C(=O)Nc2ccccc2-c2ccccc21 [RO4929097]
p15 expression (p15; HL60 with ANXA1 knockdown): inhibited the expression of p15 in KG1a and HL60 cells with ANXA1 knockdown
p15 expression (p15; KG1a with ANXA1 knockdown): inhibited the expression of p15 in KG1a and HL60 cells with ANXA1 knockdown
cell proliferation (HL60-shANXA1 cells): promoting the proliferation of AML cells
cell proliferation (KG1a-shANXA1 cells): promoting the proliferation of AML cells

Ac2-26: N-terminal ANXA1 peptide, FPR agonist (Ac-AMVSEFLKQAWFIENEEQEYVQTVK; UniProt P04083 2-26, looked up, fragment)
effect on proliferation (KG1a cells): neither the FPR antagonist nor the N‐terminal ANXA1 peptide Ac2‐26 affected the proliferation of AML cells
effect on proliferation (HL60 cells): neither the FPR antagonist nor the N‐terminal ANXA1 peptide Ac2‐26 affected the proliferation of AML cells
